Measurements: paper PMC9821308, “The Inhibitory Properties of a Novel, Selective LMTK3 Kinase Inhibitor” (International Journal of Molecular Sciences, 2023)

Experiments:
[1] = molecular target: T1, LMTK3 (lemur tyrosine kinase 3) (Homo sapiens, UniProt Q96Q04); test: microscale thermophoresis; also […] kinase assay on HSP27 (IC50 approximately […]); type: binding
T1 construct: LMTK3cat (LMTK3 kinase domain)
T1 sequence (Q96Q04 133-411 limits assumed): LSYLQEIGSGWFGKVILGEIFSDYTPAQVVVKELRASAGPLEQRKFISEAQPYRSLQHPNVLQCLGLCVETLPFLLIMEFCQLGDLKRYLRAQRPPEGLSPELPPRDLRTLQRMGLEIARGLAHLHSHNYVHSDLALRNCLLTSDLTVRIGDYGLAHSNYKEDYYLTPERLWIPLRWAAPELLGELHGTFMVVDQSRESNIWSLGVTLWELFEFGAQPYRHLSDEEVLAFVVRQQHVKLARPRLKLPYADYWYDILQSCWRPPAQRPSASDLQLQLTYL

PIM1 = PIM1 (Homo sapiens, UniProt P11309); test: KINOMEscan active site-directed competition binding at […]; also radioactive filter binding assay at […]
MKNK2 = MKNK2 (Homo sapiens, UniProt Q9HBH9); test: as above
PDGFRA = PDGFRA (Homo sapiens, UniProt P16234); test: as above
TRKA = molecular target: T2, TRKA (Homo sapiens, UniProt P04629); test: KINOMEscan active site-directed competition binding at […] ([…]); also radioactive filter binding assay at […]
T2 construct: gene NTRK1

MKNK1 = MKNK1 (Homo sapiens, UniProt Q9BUB5); test: KINOMEscan active site-directed competition binding at […]; also radioactive filter binding assay at […]

## Clc1ccc(-c2cnc3sc(NCc4cccnc4)nn23)cc1 [C36]
[1]
  Kd: 1870 ± 200 nM
PIM1
  KINOMEscan active site-directed competition binding at 5 μM; also radioactive fi: overlap of kinases targeted by C36 that have been identified via both assays (namely PIM1, TRKA, PDGFRA, MKNK1, MKNK2)
MKNK2
  KINOMEscan active site-directed competition binding at 5 μM; also radioactive fi: overlap of kinases targeted by C36 that have been identified via both assays (namely PIM1, TRKA, PDGFRA, MKNK1, MKNK2)
PDGFRA
  KINOMEscan active site-directed competition binding at 5 μM; also radioactive fi: overlap of kinases targeted by C36 that have been identified via both assays (namely PIM1, TRKA, PDGFRA, MKNK1, MKNK2)
TRKA
  KINOMEscan active site-directed competition binding at 5 μM (>90%); also radioac: overlap of kinases targeted by C36 that have been identified via both assays (namely PIM1, TRKA, PDGFRA, MKNK1, MKNK2)
MKNK1
  KINOMEscan active site-directed competition binding at 5 μM; also radioactive fi: overlap of kinases targeted by C36 that have been identified via both assays (namely PIM1, TRKA, PDGFRA, MKNK1, MKNK2)
